Measured values reported in patent publication US5416070A, “Composition for macrophage activation” (ImmunoTherapeutics, Inc., priority 1990, dated 1995).

Test system: Balb/c mice
Assay: Adjuvant activity on antibody producing cells: plaque forming units per spleen after SRBC immunization
Assay type: in vivo
Experimental: The efficacy of the compound of the invention in inducing antibody response was evaluated in an immuno-compromised model using aged Balb/c mice and in normal mice using a suboptimal dose of the immunogen.
[…] The spleen was removed on day 4 and assayed for plaque forming units.
The results (Table 1) indicated a total of 66×10^3 plaque forming units (PFU) per spleen for controls, 198×10^3 PFU per spleen for mice receiving SRBC mixed with 0.1 mg MDP and 442×10^3 PFU for mice receiving SRBC mixed with 0.1 mg. of a compound of the invention IIA. Similarly, young Balb/c mice were immunized intraperitoneally with a suboptimal dose of SRBC (1×10^7 cells) in saline or mixed with 0.01 of 0.1 mg of MDP or IIA.

CCCCCCCCCCCCCCCC(=O)OCC(COC(=O)C(C)NC(=O)CCC(NC(=O)C(C)NC(=O)C(C)OC1C(NC(C)=O)C(O)OC(CO)C1OC1OC(CO)C(O)C(O)C1NC(C)=O)C(N)=O)OC(=O)CCCCCCCCCCCCCCC [Compound IIA, 4-O-[2-acetamido-2-deoxy-β-D-glucopyranosyl]-2-acetamido-2-deoxy-3-O-[D-2-propanoyl-L-alanyl-D-isoglutaminyl-L-alanyl-1,2-dipalmitoyl-sn-glycerol]-D-glucopyranose]
PFU ×10^3 (3 months old mice, SRBC inoculum 1 × 10^7 i.p., 0.01 mg/mouse): 184 ×10^3 | PFU ×10^3 (3 months old mice, SRBC inoculum 1 × 10^7 i.p., 0.1 mg/mouse): 468 ×10^3 | PFU ×10^3 (18 months old mice, SRBC inoculum 1 × 10^8 i.p., 0.1 mg/mouse, spleen day 4): 442 ×10^3 | plaque forming units (PFU) per spleen (aged Balb/c mice (18 months), SRBC mixed with 0.1 mg): 442×10^3 PFU per spleen
